Data reported in US20240124504A1, “AROMATIC HETEROCYCLIC COMPOUND, AND PHARMACEUTICAL COMPOSITION AND APPLICATION THEREOF” (GT APEIRON THERAPEUTICS LIMITED, priority 2020, published 2024).

Columns and labels:
[1] = target: CDK7/cyclinH/MAT1 complex (Homo sapiens, UniProt P50613); test: In-vitro enzymatic inhibitory activity testing, CDK7 inhibition assay (Caliper EZ Reader II); assay type: biochemical; settings: CDK7/cyclinH/MAT1 6 nM, 180 min at 27° C.
How it was run: (§1)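 Enzyme preincubated 10 min with compound, then peptide substrate plus ATP added in 80 mM MES pH 6.5, 10 mM MgCl2 buffer; 180 min at 27 °C, stopped with EDTA.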

ovarian cancer A2780 = test: Cell biological activity detection (CyQuant, 72 hours), A2780; assay type: cell-based, human; settings: A2780 cells, incubation for 72 hours
Protocol: (§2) A2780 and HCC70 cells were subjected to trypsin digestion treatment, and cell suspensions were respectively transferred to 15 mL centrifuge tubes and centrifuged for 5 min at […]) rpm; supernatant was discarded, and resuspension was carried out in a fresh medium (RPMI 1640+10% FBS), after counting, cells were seeded into a 384-well plate at 2000/well (50 μL of 1640+10% FBS medium was added to the 2nd column and the 23rd column of the 384-well plate, and 50 μL of DPBS was added to the surrounding wells). Incubation was carried out overnight in an incubator (37° C., 5% CO2).
(§3) The compound was added to the well plates the next day. The compound had the highest concentration of 10 μM and was diluted at 1:4, and there were a total of 9 concentrations; and a positive compound Paclitaxel had the highest concentration of 1 μM and was diluted at 1:3, and there were a total of 9 concentrations. The DMSO content in each well was unified to 0.2%. The cell plates were centrifuged for 30 seconds at 800 rpm and placed in an incubator (37° C., 5% CO2) for incubation for 72 hours. On the fourth day, a Cyquant reagent (3×) was formulated according to kit instructions, and formulation was carried out for each 384-well plate according to the following proportions: DPBS 11.568 mL, CyQuant®? Direct nucleic acid stain 72 μL, and CyQuant® Direct background suppressor 360 μL. After uniform mixing, the reagent was placed at room temperature for further use. The cell plates were taken out and equilibrated for 30 min at room temperature, and 25 μL of the Cyquant reagent (3×) per well was dispensed into the cells of the 384-well plates by Multi-drop, and incubation was carried out for more than 60 minutes at 37° C. Acumen plate reading (Acumen setting: an excitation wavelength of 488 nm). IC50 results were analyzed by XLFIT5 from IDBS Company.

[2] = tested on: human breast cancer cells HCC70; test: Cell biological activity detection (CyQuant, 72 hours), HCC70; assay type: cell-based; settings: incubation for 72 hours
Protocol: as §2, §3

[3] = target: T1, CDK12 (aa686-1082)/cyclinK complex (Homo sapiens, UniProt Q9NYV4); test: In-vitro enzymatic inhibitory activity testing, CDK12 inhibition assay (Caliper EZ Reader II); assay type: biochemical; settings: CDK12/cyclinK 50 nM, 180 min at 27° C.; read-out: CDK12 IC50
T1 construct: A CDK12 (aa686-1082)/cyclinK complex (50 nM)
T1 sequence (Q9NYV4 686-1082, species assumed): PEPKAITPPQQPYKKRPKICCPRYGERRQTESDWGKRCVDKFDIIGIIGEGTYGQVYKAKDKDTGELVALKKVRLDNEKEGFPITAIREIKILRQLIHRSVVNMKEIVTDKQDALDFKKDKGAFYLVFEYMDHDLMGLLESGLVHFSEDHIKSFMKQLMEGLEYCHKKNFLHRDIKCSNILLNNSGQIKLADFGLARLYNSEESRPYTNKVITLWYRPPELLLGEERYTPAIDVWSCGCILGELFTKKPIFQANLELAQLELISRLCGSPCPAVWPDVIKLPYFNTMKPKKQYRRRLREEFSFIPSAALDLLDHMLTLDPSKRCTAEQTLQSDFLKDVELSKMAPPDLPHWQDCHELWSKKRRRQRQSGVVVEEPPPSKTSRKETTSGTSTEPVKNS
T1 sequence (O75909 whole entry partner, species assumed, the tested form may be a part): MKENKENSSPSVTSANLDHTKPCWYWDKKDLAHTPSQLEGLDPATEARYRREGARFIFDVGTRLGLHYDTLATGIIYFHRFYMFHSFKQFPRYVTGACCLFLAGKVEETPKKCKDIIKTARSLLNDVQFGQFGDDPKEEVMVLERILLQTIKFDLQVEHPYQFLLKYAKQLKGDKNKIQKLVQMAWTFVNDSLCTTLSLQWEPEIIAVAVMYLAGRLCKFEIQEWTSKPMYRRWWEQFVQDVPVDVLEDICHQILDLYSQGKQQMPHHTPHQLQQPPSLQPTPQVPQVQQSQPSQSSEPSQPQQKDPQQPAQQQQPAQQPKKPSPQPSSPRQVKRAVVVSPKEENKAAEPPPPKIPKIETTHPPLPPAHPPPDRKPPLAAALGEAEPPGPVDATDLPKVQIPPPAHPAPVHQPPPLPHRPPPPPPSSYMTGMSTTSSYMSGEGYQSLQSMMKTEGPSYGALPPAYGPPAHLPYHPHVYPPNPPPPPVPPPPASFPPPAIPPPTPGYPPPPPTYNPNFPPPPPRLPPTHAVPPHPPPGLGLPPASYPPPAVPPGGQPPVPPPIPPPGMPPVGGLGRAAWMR
How it was run: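 Caliper EZ Reader II mobility-shift separation of 5-FAM-CDK9tide substrate (2 μM) from phosphoproduct, using 50 nM CDK12 (aa686-1082)/cyclinK in 80 mM MES pH 6.5, 10 mM MgCl2, 0.01% Tween 20, 50 ug/mL BSA. Compound pre-incubated 10 min with enzyme, then substrate/ATP added for 180 min at 27° C; EDTA stop. IC50 by nonlinear dose-response regression.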

CDK9/cyclinT1 complex = CDK9/cyclinT1 complex (Homo sapiens, UniProt P50750); test: In-vitro enzymatic inhibitory activity testing, CDK9 inhibition assay (Caliper EZ Reader II); assay type: biochemical; settings: CDK9/cyclinT1 8 nM, 180 min at 27° C.
CDK9/cyclinT1 complex, sequence (P50750 whole entry, species assumed): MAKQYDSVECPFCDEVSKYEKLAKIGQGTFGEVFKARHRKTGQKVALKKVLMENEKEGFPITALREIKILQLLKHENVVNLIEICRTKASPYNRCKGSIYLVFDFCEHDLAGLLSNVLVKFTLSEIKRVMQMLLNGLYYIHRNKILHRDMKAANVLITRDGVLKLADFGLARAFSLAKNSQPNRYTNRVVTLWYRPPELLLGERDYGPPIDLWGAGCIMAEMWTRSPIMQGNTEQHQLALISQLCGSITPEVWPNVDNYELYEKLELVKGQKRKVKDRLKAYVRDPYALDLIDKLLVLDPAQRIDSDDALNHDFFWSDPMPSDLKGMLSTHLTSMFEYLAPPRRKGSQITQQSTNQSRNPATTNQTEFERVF
CDK9/cyclinT1 complex, sequence (O60563 whole entry partner, species assumed): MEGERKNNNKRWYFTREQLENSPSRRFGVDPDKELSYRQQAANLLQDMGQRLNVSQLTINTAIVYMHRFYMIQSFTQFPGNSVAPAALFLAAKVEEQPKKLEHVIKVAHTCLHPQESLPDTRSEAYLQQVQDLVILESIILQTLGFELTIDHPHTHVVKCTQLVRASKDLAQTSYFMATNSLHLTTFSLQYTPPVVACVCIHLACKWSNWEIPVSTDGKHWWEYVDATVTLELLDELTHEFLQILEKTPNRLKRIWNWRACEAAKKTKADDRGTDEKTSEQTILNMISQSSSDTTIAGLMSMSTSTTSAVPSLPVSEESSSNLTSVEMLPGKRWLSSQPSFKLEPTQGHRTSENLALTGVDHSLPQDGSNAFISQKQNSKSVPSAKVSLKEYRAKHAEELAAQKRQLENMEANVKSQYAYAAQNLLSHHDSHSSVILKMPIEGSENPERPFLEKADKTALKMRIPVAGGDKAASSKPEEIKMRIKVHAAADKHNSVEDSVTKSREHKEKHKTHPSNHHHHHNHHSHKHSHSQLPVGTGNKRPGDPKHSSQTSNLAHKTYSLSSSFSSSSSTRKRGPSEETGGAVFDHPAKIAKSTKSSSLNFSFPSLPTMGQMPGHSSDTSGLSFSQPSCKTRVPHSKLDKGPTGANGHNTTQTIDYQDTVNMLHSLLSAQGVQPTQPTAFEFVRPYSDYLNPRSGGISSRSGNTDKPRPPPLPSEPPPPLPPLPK
How it was run: as §1

CDK2/cyclinE1 complex = CDK2/cyclinE1 complex (Homo sapiens, UniProt P24941); test: In-vitro enzymatic inhibitory activity testing, CDK2 inhibition assay (Caliper EZ Reader II); assay type: biochemical; settings: CDK2/cyclinE1 0.5 nM, 180 min at 27° C.
How it was run: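 CDK2/cyclinE1 (0.5 nM) phosphorylated 5-FAM-CDK7tide (2 μM) in MES buffer pH 6.5 with MgCl2, Tween 20 and BSA. Substrate and product were separated electrophoretically on a Caliper EZ Reader II. IC50 values came from nonlinear dose-response fits.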

CDK7/cyclinH/MAT1 complex, sequence (P50613 whole entry, species assumed): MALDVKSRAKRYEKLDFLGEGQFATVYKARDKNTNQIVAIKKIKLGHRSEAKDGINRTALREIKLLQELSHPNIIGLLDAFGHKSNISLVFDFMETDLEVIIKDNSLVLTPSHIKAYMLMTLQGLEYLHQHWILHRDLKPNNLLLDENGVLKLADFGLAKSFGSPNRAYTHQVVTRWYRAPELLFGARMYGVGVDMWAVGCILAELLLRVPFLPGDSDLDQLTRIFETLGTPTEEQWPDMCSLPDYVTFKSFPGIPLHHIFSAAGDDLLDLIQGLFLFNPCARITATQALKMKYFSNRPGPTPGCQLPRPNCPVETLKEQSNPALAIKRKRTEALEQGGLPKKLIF
CDK7/cyclinH/MAT1 complex, sequence (P51946 whole entry partner, species assumed): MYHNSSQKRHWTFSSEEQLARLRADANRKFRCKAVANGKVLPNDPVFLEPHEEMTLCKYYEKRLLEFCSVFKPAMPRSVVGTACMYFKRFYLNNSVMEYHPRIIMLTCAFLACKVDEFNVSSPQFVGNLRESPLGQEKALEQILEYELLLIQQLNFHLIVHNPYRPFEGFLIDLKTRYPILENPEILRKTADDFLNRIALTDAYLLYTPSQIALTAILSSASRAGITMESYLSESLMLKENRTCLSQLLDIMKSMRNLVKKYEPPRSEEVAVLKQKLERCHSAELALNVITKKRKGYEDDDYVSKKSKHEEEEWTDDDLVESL
CDK7/cyclinH/MAT1 complex, sequence (P51948 whole entry partner, species assumed): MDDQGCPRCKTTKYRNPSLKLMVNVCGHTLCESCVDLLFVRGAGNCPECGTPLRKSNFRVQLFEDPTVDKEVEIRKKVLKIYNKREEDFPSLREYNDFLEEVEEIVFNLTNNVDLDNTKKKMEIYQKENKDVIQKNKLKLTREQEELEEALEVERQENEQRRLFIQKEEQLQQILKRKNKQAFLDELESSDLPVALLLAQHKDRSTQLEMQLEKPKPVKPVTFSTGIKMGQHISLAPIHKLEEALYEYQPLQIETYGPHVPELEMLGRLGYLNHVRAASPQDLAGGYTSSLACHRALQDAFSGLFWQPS

SMILES | IC50 [1] | IC50 (ovarian cancer A2780) | IC50 ([2]; Homo sapiens, HCC70, 72 h) | IC50 [3] | IC50 (CDK9/cyclinT1 complex) | IC50 (CDK2/cyclinE1 complex) | IC50 [2] | IC50 (ovarian cancer A2780; Homo sapiens, A2780, 72 h)
CP(C)(=O)c1cccc2c(-c3nc(NCC(O)C(F)F)ncc3C(F)(F)F)c[nH]c12 (single isomer, unassigned) [Compound 124] | < 0.02 µM | 0.02 to 0.2 µM | 0.02 to 0.2 µM | > 50 µM | > 50 µM | 5 to 50 µM |  | 
CP(C)(=O)c1cccc2c(-c3nc(NCC(O)C(F)F)ncc3C(F)(F)F)c[nH]c12 (single isomer, unassigned) [Compound 125] | 0.02 to 0.2 µM | 0.2 to 5 µM |  | > 50 µM | > 50 µM | 5 to 50 µM | 0.02 to 0.2 µM | 
CN(C)CC1CCCC1Nc1ncc(C(F)(F)F)c(-c2c[nH]c3c(P(C)(C)=O)cccc23)n1 (single isomer, unassigned) [Compound 135] | < 0.02 µM |  | < 0.02 µM | 0.2 to 5 µM | 5 to 50 µM | 0.2 to 5 µM |  | < 0.02 µM
CP(C)(=O)c1cccc2c(-c3nc(NCC(O)C(F)(F)F)ncc3C(F)(F)F)c[nH]c12 (single isomer, unassigned) [Compound 146] | < 0.02 µM |  |  | > 50 µM | > 50 µM | 5 to 50 µM | 0.02 to 0.2 µM | 0.02 to 0.2 µM
CP(C)(=O)c1cccc2c(-c3nc(NCC(O)C(F)(F)F)ncc3C(F)(F)F)c[nH]c12 (single isomer, unassigned) [Compound 147] | 0.02 to 0.2 µM | 0.02 to 0.2 µM |  | > 50 µM | > 50 µM | > 50 µM | 0.2 to 5 µM | 
Cc1noc(C)c1-c1ccc2c(-c3nc(NC4CCC5(CCNC5)C4)ncc3C(F)(F)F)c[nH]c2n1 (stereo not drawn) [Compound 35, N-(4-(6-(3,5-dimethylisoxazol-4-yl)-1H-pyrrolo[2,3-b]pyridin-3-yl)-5-(trifluoromethyl)pyrimidin-2-yl)-2-azaspiro[4.4]non-7-amine] | < 0.02 µM |  | 0.02 to 0.2 µM | 0.2 to 5 µM | 0.2 to 5 µM | 0.2 to 5 µM |  | 0.02 to 0.2 µM
FC(F)(F)c1cnc(NC2CCC23CCNC3)nc1-c1c[nH]c2nc(N3CCOCC3)ccc12 (stereo not drawn) [Compound 37, N-(4-(6-morpholinyl-1H-pyrrolo[2,3-b]pyridin-3-yl)-5-(trifluoromethyl)pyrimidin-2-yl)-6-azaspiro[3.4]octan-1-amine] | 0.02 to 0.2 µM |  | 0.2 to 5 µM | 5 to 50 µM | 5 to 50 µM | 5 to 50 µM |  | 0.2 to 5 µM
FC(F)(F)c1cnc(NC2CCC23CNC3)nc1-c1c[nH]c2nc(N3CCOCC3)ccc12 (stereo not drawn) [Compound 39, N-(4-(6-morpholinyl-1H-pyrrolo[2,3-b]pyridin-3-yl)-5-(trifluoromethyl)pyrimidin-2-yl)-2-azaspiro[3.3]heptan-5-amine] | < 0.02 µM |  | 0.02 to 0.2 µM | 5 to 50 µM | 5 to 50 µM | 5 to 50 µM |  | 0.02 to 0.2 µM
FC(F)(F)c1cnc(NC2CCC3(CCNC3)C2)nc1-c1c[nH]c2nc(N3CCOCC3)ccc12 (stereo not drawn) [Compound 40, N-(4-(6-morpholinyl-1H-pyrrolo[2,3-b]pyridin-3-yl)-5-(trifluoromethyl)pyrimidin-2-yl)-2-azaspiro[4.4]non-7-amine] | 0.02 to 0.2 µM |  | 0.2 to 5 µM | 5 to 50 µM | 5 to 50 µM | 5 to 50 µM |  | 0.02 to 0.2 µM
FC(F)(F)c1cnc(NC2CCCC3(CCNCC3)C2)nc1-c1c[nH]c2nc(N3CCOCC3)ccc12 (stereo not drawn) [Compound 41, N-(4-(6-morpholinyl-1H-pyrrolo[2,3-b]pyridin-3-yl)-5-(trifluoromethyl)pyrimidin-2-yl)-3-azaspiro[5.5]undecan-8-amine] | 0.02 to 0.2 µM |  | 0.2 to 5 µM | 5 to 50 µM | 5 to 50 µM | 5 to 50 µM |  | 0.02 to 0.2 µM
FC(F)(F)c1cnc(NC2C3CNCC32)nc1-c1c[nH]c2nc(N3CCOCC3)ccc12 (stereo not drawn) [Compound 46, N-(4-(6-morpholinyl-1H-pyrrolo[2,3-b]pyridin-3-yl)-5-(trifluoromethyl)pyrimidin-2-yl)-3-azabicyclo[3.1.0]n-hexan-6-amine] | 0.2 to 5 µM |  | 0.2 to 5 µM | 5 to 50 µM | 5 to 50 µM | 5 to 50 µM |  | 0.2 to 5 µM
FC(F)(F)c1cnc(NC2CCCNCC2)nc1-c1c[nH]c2nc(N3CCOCC3)ccc12 (stereo not drawn) [Compound 47, N-(4-(6-morpholinyl-1H-pyrrolo[2,3-b]pyridin-3-yl)-5-(trifluoromethyl)pyrimidin-2-yl)azepan-4-amine] | 0.02 to 0.2 µM |  | 0.2 to 5 µM | 5 to 50 µM | 5 to 50 µM | 5 to 50 µM |  | 0.2 to 5 µM
FC(F)(F)c1cnc(NC2COC3(CCCNC3)C2)nc1-c1c[nH]c2nc(N3CCOCC3)ccc12 (stereo not drawn) [Compound 50, N-(4-(6-morpholinyl-1H-pyrrolo[2,3-b]pyridin-3-yl)-5-(trifluoromethyl)pyrimidin-2-yl)-1-oxa-7-azaspiro[4.5]decan-3-amine] | 0.2 to 5 µM |  | 0.2 to 5 µM | 5 to 50 µM | > 50 µM | 5 to 50 µM |  | 0.2 to 5 µM
FC(F)(F)c1cnc(NC2COC3(CCNCC3)C2)nc1-c1c[nH]c2nc(N3CCOCC3)ccc12 (stereo not drawn) [Compound 51, N-(4-(6-morpholinyl-1H-pyrrolo[2,3-b]pyridin-3-yl)-5-(trifluoromethyl)pyrimidin-2-yl)-1-oxa-8-azaspiro[4.5]decan-3-amine] | 0.2 to 5 µM |  | 0.2 to 5 µM | 5 to 50 µM | 5 to 50 µM | 5 to 50 µM |  | 0.2 to 5 µM
FC(F)(F)c1cnc(NCC2CCNC2)nc1-c1c[nH]c2nc(N3CCOCC3)ccc12 (stereo not drawn) [Compound 52, 4-(6-morpholinyl-1H-pyrrolo[2,3-b]pyridin-3-yl)-N-(pyrrolidin-3-ylmethyl)-5-(trifluoromethyl)pyrimidin-2-amine] | 0.02 to 0.2 µM |  | 0.2 to 5 µM | 5 to 50 µM | 5 to 50 µM | 5 to 50 µM |  | 0.2 to 5 µM
C[C@@H]1C[C@H](Nc2ncc(C(F)(F)F)c(-c3c[nH]c4nc(N5CCOCC5)ccc34)n2)CCN1 [Compound 54, N-((2R,4R)-2-methylpiperidin-4-yl)-4-(6-morpholinyl-1H-pyrrolo[2,3-b]pyridin-3-yl)-5-(trifluoromethyl)pyrimidin-2-amine] | 0.02 to 0.2 µM |  | 0.2 to 5 µM | 5 to 50 µM | > 50 µM | 5 to 50 µM |  | 0.2 to 5 µM
FC(F)(F)c1cnc(NC2CCC3CNCC32)nc1-c1c[nH]c2nc(N3CCOCC3)ccc12 (stereo not drawn) [Compound 55, N-(4-(6-morpholinyl-1H-pyrrolo[2,3-b]pyridin-3-yl)-5-(trifluoromethyl)pyrimidin-2-yl)octahydrocyclopenta[c]pyrrol-4-amine] | 0.02 to 0.2 µM |  | 0.2 to 5 µM | > 50 µM | > 50 µM | 5 to 50 µM |  | 0.02 to 0.2 µM
FC(F)(F)c1cnc(NC2COC23CNC3)nc1-c1c[nH]c2nc(N3CCOCC3)ccc12 (stereo not drawn) [Compound 58, N-(4-(6-morpholinyl-1H-pyrrolo[2,3-b]pyridin-3-yl)-5-(trifluoromethyl)pyrimidin-2-yl)-1-oxa-6-azaspiro[3.3]heptan-3-amine] | 0.02 to 0.2 µM |  | 0.02 to 0.2 µM | > 50 µM | > 50 µM | 5 to 50 µM |  | 0.2 to 5 µM
